12 compounds from ChEMBL document CHEMBL1201862, “PubChem BioAssay data set” (2004) can be followed below.

Test systems include A549; ACHN; COLO 205; HCT-116; HCT-15; LOX IMVI; M14; NCI-H460; OVCAR-3; OVCAR-5; RXF 393; SK-MEL-28; SK-OV-3; SNB-19; SNB-75; SW-620; UACC-62; SF-539; NCI-H522; NCI/ADR-RES.
What all share (assay): growth of human tumour cells (NCI), 48 h

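Compound exposure: 48 hours, 5 concentrations, 96-well plates. Here, GI50 denotes the concentration required for 50% inhibition of growth.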 Activity calls are given as the source filed them. No stated cut-off is given here; in the data, active = GI50 up to about 1.1 µM and inactive = higher. A value given as a limit tells only on which side of the number the result lay.

Consider `COc1cc(C2C(C(=O)O)=C(COC(C)=O)Oc3cc4c(cc32)OCO4)cc(OC)c1OC` (stereo unspecified), for which the GI50 in the test with A549 is > 100 µM (inactive); in the test on ACHN it was > 100 µM (inactive); with COLO 205 it was > 100 µM (inactive); in the test with HCT-116 it was > 100 µM (inactive); in the test with HCT-15, above 100 µM; in the test on LOX IMVI it was > 100 µM (inactive). For the same compound, the GI50 with M14, in the test with NCI-H460, in the test on OVCAR-3, with OVCAR-5, in the test on RXF 393 and in the test on SK-MEL-28 was > 100 µM (inactive) each time. Further, the GI50 with SK-OV-3 is > 100 µM (inactive); in the test on SNB-19, > 100 µM (inactive); with SNB-75 it was 41 µM (inactive); in the test with SW-620, > 100 µM (inactive); with UACC-62, > 100 µM (inactive).

`O=C1CCCC(=O)N1CCc1c[nH]c2ccccc12`: the GI50 in the test with A549, in the test with ACHN, in the test with HCT-116, in the test with M14, with NCI-H460 and in the test with OVCAR-3 was > 100 µM (inactive) each time. For the same compound, the GI50 with OVCAR-5, with RXF 393, in the test on SF-539, in the test with SK-MEL-28, with SK-OV-3 and in the test on SNB-19 was > 100 µM (inactive) in each case. Besides, the GI50 in the test with SNB-75, with SW-620 and in the test with UACC-62 was > 100 µM (inactive) throughout.

Regarding `O=NN1CCN=C1c1ccc([N+](=O)[O-])cc1`, the GI50 is > 100 µM (inactive) in the test on A549; > 100 µM (inactive) with ACHN; > 100 µM (inactive) in the test with COLO 205; > 100 µM (inactive) in the test on HCT-116; above 100 µM with HCT-15; > 100 µM (inactive) in the test on LOX IMVI. The GI50 in the test with M14, in the test with NCI-H460, in the test with NCI-H522, in the test with OVCAR-3, in the test on OVCAR-5 and in the test with RXF 393 was > 100 µM (inactive) each time. Further, the GI50 with SF-539, in the test on SK-MEL-28, in the test on SK-OV-3, in the test on SNB-19, in the test with SNB-75 and in the test with SW-620 was > 100 µM (inactive) each time. In the test on UACC-62, the GI50 is > 100 µM (inactive).

Turning to `O=C(O)C1(C(O)c2ccccc2)SCCCS1` (stereo unspecified), the GI50 is > 10 µM (inactive) with A549; > 10 µM (inactive) in the test with ACHN; > 10 µM (inactive) in the test with HCT-116; above 10 µM with HCT-15; > 10 µM (inactive) in the test on LOX IMVI; > 10 µM (inactive) with M14. The GI50 with NCI-H460, in the test on OVCAR-3, with OVCAR-5, with RXF 393, in the test on SF-539 and with SK-MEL-28 was > 10 µM (inactive) throughout. Besides, the GI50 with SK-OV-3, in the test on SNB-19, in the test on SNB-75, with SW-620 and in the test with UACC-62 was > 10 µM (inactive) throughout.

Consider `CCCCCCCCC(O)c1ccc(/C=C\C(O)CCCC(=O)O)s1` (stereo unspecified), for which the GI50 is > 100 µM (inactive) in the test on A549; > 100 µM (inactive) in the test on ACHN; > 100 µM (inactive) in the test with COLO 205; > 100 µM (inactive) with HCT-116; above 100 µM with HCT-15; > 100 µM (inactive) in the test on LOX IMVI. Moreover, the GI50 in the test on M14, in the test with NCI-H460, with NCI-H522, with OVCAR-3, with OVCAR-5 and with RXF 393 was > 100 µM (inactive) in each case. Besides, the GI50 in the test with SF-539, in the test with SK-MEL-28, in the test with SK-OV-3, in the test with SNB-19, in the test with SNB-75 and with SW-620 was > 100 µM (inactive) throughout. In the test on UACC-62, the GI50 was > 100 µM (inactive).

Regarding `CC(C)(C)N1C(C(=O)c2ccccc2)C1c1ccccc1` (stereo unspecified), the GI50 with A549 was > 100 µM (inactive); in the test on COLO 205, > 100 µM (inactive); in the test with HCT-15, above 100 µM; in the test with LOX IMVI, > 100 µM (inactive); in the test on M14, > 100 µM (inactive); in the test on NCI-H460, > 100 µM (inactive). For the same compound, the GI50 in the test on NCI-H522, in the test on OVCAR-3, in the test on RXF 393, in the test with SF-539, in the test on SK-MEL-28 and in the test with SK-OV-3 was > 100 µM (inactive) in each case. The GI50 in the test on SNB-19, with SNB-75, with SW-620 and in the test with UACC-62 was > 100 µM (inactive) in each case.

Consider `COc1ccccc1C1C(Cl)C(=O)N1n1cnc2ccccc2c1=O` (stereo unspecified), for which the GI50 in the test on A549 was > 100 µM (inactive); with ACHN, > 100 µM (inactive); in the test with COLO 205, > 100 µM (inactive); in the test on HCT-116, > 100 µM (inactive); in the test on HCT-15, above 100 µM; in the test on LOX IMVI it was > 100 µM (inactive). Also, the GI50 in the test on M14, with NCI-H460, in the test on NCI-H522, in the test with OVCAR-3, in the test on OVCAR-5 and with RXF 393 was > 100 µM (inactive) each time. Moreover, the GI50 with SK-MEL-28 is > 100 µM (inactive); in the test on SK-OV-3, > 100 µM (inactive); in the test on SNB-19, 75 µM (inactive); in the test with SNB-75, 40.6 µM (inactive); in the test on SW-620, > 100 µM (inactive); in the test with UACC-62, > 100 µM (inactive).

Take `O=c1c(-c2ccc(O)cc2)coc2cc(O)cc(O)c12` [GENISTEIN]: the GI50 with A549 was 62.4 µM (inactive); in the test with ACHN, 29.7 µM (inactive); in the test with COLO 205 it was > 100 µM (inactive); in the test on HCT-15, 72.9 µM; in the test with M14, > 100 µM (inactive); with NCI-H460 it was 42 µM (inactive). Moreover, the GI50 in the test on NCI-H522 was 36.4 µM (inactive); in the test with NCI/ADR-RES, > 100 µM (inactive); in the test with OVCAR-5 it was > 100 µM (inactive); in the test with SF-539, > 100 µM (inactive); in the test on SK-MEL-28 it was > 100 µM (inactive); with SNB-19 it was 92 µM (inactive). Further, the values for the GI50 in the test with SW-620 and in the test on UACC-62 were 49.2 µM (inactive) and > 100 µM (inactive), respectively.

Consider `Cc1nc2c(sc(=S)n2-c2ccccc2)c(=O)[nH]1`, for which the GI50 in the test on A549, in the test with ACHN, with COLO 205, in the test on HCT-116, in the test with NCI-H460 and in the test with NCI-H522 was > 100 µM (inactive) in each case. Further, the GI50 in the test on OVCAR-3, in the test with OVCAR-5, with SF-539, in the test on SK-MEL-28, with SK-OV-3 and in the test on SNB-19 was > 100 µM (inactive) each time. Also, the GI50 in the test on SW-620 and in the test with UACC-62 was > 100 µM (inactive) throughout.

In the case of `c1c2c(cc(-n3nnc4c3CCCCCC4)c1-n1nnc3c1CCCCCC3)CCCCCC2`, the GI50 in the test on ACHN was 5.71 µM (inactive); in the test on HCT-116, 5.7 µM (inactive); with HCT-15, 5.19 µM; with LOX IMVI, 11.8 µM (inactive); in the test on M14 it was 13.7 µM (inactive); in the test on NCI-H460, 6.3 µM (inactive). Also, the GI50 was 0.485 µM (active) in the test on NCI-H522; 12.1 µM (inactive) in the test on OVCAR-3; 15.8 µM (inactive) in the test on OVCAR-5; 8.07 µM (inactive) with RXF 393; 17.2 µM (inactive) in the test on SK-MEL-28; 14.8 µM (inactive) in the test with SK-OV-3. Also, the GI50 with SNB-19 was 12.8 µM (inactive); with SNB-75 it was 12.7 µM (inactive); in the test on SW-620, 11.2 µM (inactive); in the test on UACC-62, 12.4 µM (inactive).

On to `Fc1ccccc1C1CC(C(c2ccccc2)c2ccccc2)=Nc2ccccc2S1` (stereo unspecified), for which the GI50 in the test on A549 was 11.4 µM (inactive); in the test with ACHN, 11.7 µM (inactive); in the test with COLO 205 it was 14.8 µM (inactive); with HCT-15, 5.78 µM; in the test on LOX IMVI it was 5.78 µM (inactive); with M14, 11.9 µM (inactive). For the same compound, the GI50 was 4.89 µM (inactive) in the test on NCI-H460; 6.79 µM (inactive) with NCI-H522; 11.3 µM (inactive) in the test on OVCAR-3; 12.1 µM (inactive) in the test on OVCAR-5; 4.63 µM (inactive) in the test with RXF 393; 21.9 µM (inactive) in the test with SF-539. Besides, the GI50 in the test on SK-MEL-28 was 12.6 µM (inactive); in the test on SK-OV-3 it was 26.9 µM (inactive); in the test with SNB-19, 14.4 µM (inactive); in the test on SNB-75, 1.13 µM (inactive); in the test on SW-620 it was 6.04 µM (inactive); with UACC-62 it was 3.27 µM (inactive).

Consider `CC(=O)OCC1OC(N2C(=O)NC(=O)C3C=C4CCCCC4=CC32)C(OC(C)=O)C1OC(C)=O` (stereo unspecified), for which the GI50 was > 100 µM (inactive) in the test with A549; > 100 µM (inactive) in the test on ACHN; > 100 µM (inactive) in the test with COLO 205; > 100 µM (inactive) with HCT-116; above 100 µM with HCT-15; > 100 µM (inactive) with LOX IMVI. The GI50 in the test on M14, in the test on NCI-H460, with NCI-H522, in the test with OVCAR-3, in the test with OVCAR-5 and with RXF 393 was > 100 µM (inactive) each time. Further, the GI50 in the test on SF-539, in the test on SK-MEL-28, in the test with SK-OV-3, in the test with SNB-19, in the test with SW-620 and in the test on UACC-62 was > 100 µM (inactive) in each case.
